These results are taken from ChEMBL document CHEMBL3639112, “Modulators of calcium release-activated calcium channel and methods for treatment of non-small cell lung cancer” (2015).

The target in this assay is Calcium release-activated calcium channel protein 1 (Homo sapiens, UniProt Q96D31). As to the kind of experiment: Inhibition Assay: Inhibition of CRAC channels was determined following thapsigargin (Sigma, Cat # T9033) induced endoplasmic calcium release in Jurkat cells. (see Yasurio Yonetoky et. al Bio. & Med. Chem. 14 (2006) 4750-4760). Cells were centrifuged and resuspended in equal volumes f Ca2+ and Mg2+ free Hanks buffer and Fluo-8 NW dye (ABD Bioquest, Inc., Sunnyvale, Calif.) loading solution at 2x10^5 cells/100 ul/well in 96-well black plate. Plate is incubated at 37 C./5% CO2 […] followed by further […] at room temperature. Test compounds (DMSO stocks diluted in Ca2+ and Mg2+ free Hanks buffer) at desired concentrations were added to the wells and […]. Thapsigargin (1 uM final concentration) was added to the wells and incubated for 15 min to inhibit the Sarco-endoplasmic reticulum Ca2+ ATPase pump thereby depleting endoplasmic calcium and raising cytosolic calcium concentrations. Store-operated calcium entry was initiated by adding extracellular Ca2+. The format is cell-based.
Sequence of Calcium release-activated calcium channel protein 1 (Q96D31 whole entry): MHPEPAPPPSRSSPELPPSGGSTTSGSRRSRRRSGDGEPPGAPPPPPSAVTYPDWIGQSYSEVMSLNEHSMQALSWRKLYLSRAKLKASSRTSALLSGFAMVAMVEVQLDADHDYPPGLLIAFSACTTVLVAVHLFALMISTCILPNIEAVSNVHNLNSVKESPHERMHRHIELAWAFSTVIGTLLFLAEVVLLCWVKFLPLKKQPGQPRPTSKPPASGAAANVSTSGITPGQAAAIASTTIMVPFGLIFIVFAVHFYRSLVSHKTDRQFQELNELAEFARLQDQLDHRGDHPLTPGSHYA

The term IC50 denotes the point on the concentration scale where inhibition reaches its midpoint.

Turning to `O=C(Cc1ccc2ncccc2c1)Nc1ccc(-n2nc(C3CC3)cc2C2CC2)cc1`, the IC50 worked out at 147 nM.
For the molecule `O=C(Nc1ccc(-n2nc(C(F)(F)F)cc2C2CC2)cc1)c1ccc2ncccc2c1`, the IC50 worked out at 86.1 nM.
